From patent US8048881B2, “Pyrimidine derivatives and their use as P2Y12 receptor antagonists” (Actelion Pharmaceuticals Ltd., priority 2005, dated 2011)
Counter-ions that a name gives are not always drawn.

molecular target: T1, human P2Y12 receptor (Homo sapiens, UniProt Q9H244); experiment: P2Y12 receptor binding assay; conditions: CHO cells with recombinant expression of the human P2Y12 receptor; tritium-labeled 2-methyl-S-ADP; incubation at room temperature for 2 hours
T1 construct: expressed in transfected cells; host or cells: Chinese Hamster Ovary (CHO) cells
T1 sequence (Q9H244 whole entry): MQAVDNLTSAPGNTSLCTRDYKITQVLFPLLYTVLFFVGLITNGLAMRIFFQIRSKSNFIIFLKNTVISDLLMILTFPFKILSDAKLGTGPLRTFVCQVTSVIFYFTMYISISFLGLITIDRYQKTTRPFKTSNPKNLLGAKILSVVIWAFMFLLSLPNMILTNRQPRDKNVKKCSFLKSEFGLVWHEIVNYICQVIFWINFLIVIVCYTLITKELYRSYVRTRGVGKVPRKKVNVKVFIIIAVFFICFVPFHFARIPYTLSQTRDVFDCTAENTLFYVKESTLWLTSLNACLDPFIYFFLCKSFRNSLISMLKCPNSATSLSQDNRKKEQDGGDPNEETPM
Experimental: P2Y12 Receptor Binding Assay
Chinese Hamster Ovary (CHO) cells with recombinant expression of the human P2Y12 receptor were cultured in 24 well cell-culture plates. Cells were washed three times with binding buffer (50 mM Tris pH 7.4, 100 mM NaCl, 1 mM EDTA, 0.5% BSA). The cells were then incubated with 0.5 ml per well binding buffer containing tritium-labeled 2-methyl-thio-adenosine 5′-diphosphate (2-methyl-S-ADP) (between 100'000 and 300'000 dpm per well) and various concentrations of test compounds. After incubation at room temperature for 2 hours, cells were washed three times with binding buffer. Then, cells were solubilized by addition of 0.5 ml solubilization buffer (SDS, NaOH, EDTA). The content of each well was then transferred into beta-counter vials and 2.0 ml of Ultima Gold Scintillation liquid was added.

IC50 [nM]	Compound
86	CCOC(=O)N1CCN(C(=O)[C@H](CCC(=O)O)NC(=O)c2cc(CN(C)Cc3ccccc3)nc(-c3ccccc3)n2)CC1 [Example 362, 4-[(S)-2-({6-[(benzyl-methyl-amino)-methyl]-2-phenyl-pyrimidine-4-carbonyl}-amino)-4-carboxy-butyryl]-piperazine-1-carboxylic acid ethyl ester]
129	CCOC(=O)N1CCN(C(=O)[C@H](CCC(=O)O)NC(=O)c2cc(-c3ccc[n+]([O-])c3)nc(-c3ccccc3)n2)CC1 [Example 418, 4-((S)-4-carboxy-2-{[6-(1-oxy-pyridin-3-yl)-2-phenyl-pyrimidine-4-carbonyl]-amino}-butyryl)-piperazine-1-carboxylic acid ethyl ester]
61	CCOC(=O)N1CCN(C(=O)[C@H](CCC(=O)O)NC(=O)c2cc(N3CCC[C@@H]3COC)nc(-c3ccccc3)n2)CC1 [Example 324, 4-((S)-4-carboxy-2-{[6-((R)-2-methoxymethyl-pyrrolidin-1-yl)-2-phenyl-pyrimidine-4-carbonyl]-amino}-butyryl)-piperazine-1-carboxylic acid ethyl ester formate salt]
216	CCOC(=O)N1CCN(C(=O)[C@H](CCC(=O)O)NC(=O)c2cc(/C=C/C(C)O)nc(-c3ccccc3)n2)CC1 (stereo partly drawn) [Example 267, 4-((S)-4-carboxy-2-{[6-((E)-3-hydroxy-but-1-enyl)-2-phenyl-pyrimidine-4-carbonyl]-amino}-butyryl)-piperazine-1-carboxylic acid ethyl ester]
307	CCOC(=O)N1CCN(C(=O)[C@H](CO)NC(=O)c2cc(OC3CCCC3)nc(-c3ccccc3)n2)CC1 [Example 10, 4-{(S)-2-[(6-cyclopentyloxy-2-phenyl-pyrimidine-4-carbonyl)-amino]-3-hydroxy-propionyl}-piperazine-1-carboxylic acid ethyl ester]
127	CCOC(=O)N1CCN(C(=O)[C@H](CCc2nnn[nH]2)NC(=O)c2cc(OC3CCCC3)nc(-c3ccccc3)n2)CC1 [Example 19, 4-[(S)-2-[(6-cyclopentyloxy-2-phenyl-pyrimidine-4-carbonyl)-amino]-4-(1H-tetrazol-5-yl)-butyryl]-piperazine-1-carboxylic acid ethyl ester]
624	CCOC(=O)N1CCN(C(=O)[C@H](CCC(=O)O)NC(=O)c2cc(SC3CCCCC3)nc(-c3ccccc3)n2)CC1 [Example 251, 4-{(S)-4-carboxy-2-[(6-cyclohexylsulfanyl-2-phenyl-pyrimidine-4-carbonyl)-amino]-butyryl}-piperazine-1-carboxylic acid ethyl ester]
95	CC(C)OC(=O)N1CCN(C(=O)[C@H](CCC(=O)O)NC(=O)c2cc(OC3CCCC3)nc(-c3ccccc3)n2)CC1 [Example 38, 4-{(S)-4-carboxy-2-[(6-cyclopentyloxy-2-phenyl-pyrimidine-4-carbonyl)-amino]-butyryl}-piperazine-1-carboxylic acid isopropyl ester]
108	CCOC(=O)N1CCN(C(=O)[C@H](CCC(=O)O)NC(=O)c2cc(CS(=O)(=O)CC)nc(-c3ccccc3)n2)CC1 [Example 375, 4-{(S)-4-carboxy-2-[(6-ethanesulfonylmethyl-2-phenyl-pyrimidine-4-carbonyl)-amino]-butyryl}-piperazine-1-carboxylic acid ethyl ester]
193	CCOC(=O)N1CCN(C(=O)[C@H](CCC(=O)O)NC(=O)c2cc(OCC3CC3)nc(-c3ccccc3)n2)CC1 [Example 27, 4-{(S)-4-carboxy-2-[(6-cyclopropylmethoxy-2-phenyl-pyrimidine-4-carbonyl)-amino]-butyryl}-piperazine-1-carboxylic acid ethyl ester]
243	CCOC(=O)N1CCN(C(=O)[C@H](CC(=O)O)NC(=O)c2cc(OC3CCCC3)nc(-c3ccccc3)n2)CC1 [Example 2, 4-{(S)-3-carboxy-2-[(6-cyclopentyloxy-2-phenyl-pyrimidine-4-carbonyl)-amino]-propionyl}-piperazine-1-carboxylic acid ethyl ester]
207	CCOC(=O)N1CCN(C(=O)[C@H](CCC(=O)O)NC(=O)c2cc(CCO)nc(-c3ccccc3)n2)CC1 [Example 408, 4-((S)-4-carboxy-2-{[6-(2-hydroxy-ethyl)-2-phenyl-pyrimidine-4-carbonyl]-amino}-butyryl)-piperazine-1-carboxylic acid ethyl ester]
161	CCOC(=O)N1CCN(C(=O)[C@H](CCC(=O)O)NC(=O)c2cc(N)nc(-c3ccccc3)n2)CC1 [Example 333, 4-{(S)-2-[(6-amino-2-phenyl-pyrimidine-4-carbonyl)-amino]-4-carboxy-butyryl}-piperazine-1-carboxylic acid ethyl ester triflate salt]
100	CCOC(=O)N1CCN(C(=O)[C@H](CCC(=O)O)NC(=O)c2cc(N3CCOCC3)nc(-c3ccccc3)n2)CC1 [Example 225, 4-{(S)-4-carboxy-2-[(6-morpholin-4-yl-2-phenyl-pyrimidine-4-carbonyl)-amino]-butyryl}-piperazine-1-carboxylic acid ethyl ester formate salt]
121	CCOC(=O)N1CCN(C(=O)[C@H](CCC(=O)O)NC(=O)c2cc(N(C)C)nc(-c3ccccc3)n2)CC1 [Example 79, 4-{(S)-4-carboxy-2-[(6-dimethylamino-2-phenyl-pyrimidine-4-carbonyl)-amino]-butyryl}-piperazine-1-carboxylic acid ethyl ester triflate salt]
170	CCOC(=O)N1CCN(C(=O)[C@H](CCC(=O)O)NC(=O)c2cc(C(F)(F)F)nc(-c3ccccc3)n2)CC1 [Example 431, 4-{(S)-4-carboxy-2-[(2-phenyl-6-trifluoromethyl-pyrimidine-4-carbonyl)-amino]-butyryl}-piperazine-1-carboxylic acid ethyl ester]

Compound	IC50 [nM]
CCOC(=O)N1CCN(C(=O)[C@H](CCC(=O)OC(C)(C)C)NC(=O)c2cc(OCC(=O)O)nc(-c3ccccc3)n2)CC1 [Example 132, 4-{(S)-4-tert-butoxycarbonyl-2-[(6-carboxymethoxy-2-phenyl-pyrimidine-4-carbonyl)-amino]-butyryl}-piperazine-1-carboxylic acid ethyl ester]	8110
